# How the values were obtained:
# [1] = system: Septoria Tritici Blotch (STB) (Zymoseptoria tritici); assay: glasshouse fungicidal efficacy against Septoria Tritici Blotch on winter wheat; conditions: Abbott's transformation
# Method: The study design was a randomized complete block with 4 replicates.
# The treatments were applied in accordance with Table 14, and on the day after application, artificial inoculation of the target was performed by spraying the inoculum solution at the concentration of 1×10^6 cfu/ml on the leaves. The compositions were diluted in a water volume equivalent to 400 L/ha.
# Analysis of Variance (ANOVA) and a Bartlett test to assume the homogeneity of the treatment variances were performed on each assessment. Data were analyzed using ANOVA.
# Evaluations were performed on incidence and severity of Septoria on leaves and transformed into percentage of disease control using the Abbott's transformation.
# [2] = system: Ramularia (Ramularia collo-cygni) in barley; assay: fungicidal activity toward Ramularia in barley, protected conditions; type: in vivo
# From the text: The following fungicides and combination of fungicides are applied to ramularia in barley. The observation was made 10 days after application. The results are shown below: The following fungicides and combination of fungicides are applied to ramularia in barley. The observation was made 24 days after application.
structure (smiles),measurement,setting,value
CC(O)(Cn1cncn1)c1ccc(Oc2ccc(Cl)cc2)cc1C(F)(F)F (stereo not drawn) [Mefentrifluconazole],Disease control on severity on leaves,[1]; Mefentrifluconazole 100 g AI/ha,49.9%
Cc1ccc(S(=O)(=O)n2cc(F)c(=N)n(C)c2=O)cc1 [ADF-16],Observed Efficacy,"[2]; ADF-16 25 g a.i./ha, 10 days after application",45.70%
same,Observed Efficacy,"[2]; ADF-16 25 g a.i./ha, 24 days after application",44.50%
same,Observed Efficacy,"[2]; ADF-16 35 g a.i./ha, 10 days after application",55.00%
same,Observed Efficacy,"[2]; ADF-16 35 g a.i./ha, 24 days after application",45.60%
"O=C1c2ccccc2C(=O)N1SC(Cl)(Cl)Cl [Folpet, folpet]",Observed Efficacy,"[2]; Folpet 175 g a.i./ha, 10 days after application",25.10%
same,Observed Efficacy,"[2]; Folpet 175 g a.i./ha, 24 days after application",21.60%
same,Observed Efficacy,"[2]; Folpet 300 g a.i./ha, 10 days after application",61.10%
same,Observed Efficacy,"[2]; Folpet 300 g a.i./ha, 24 days after application",31.00%
same,Observed Efficacy,"[2]; Folpet 400 g a.i./ha, 10 days after application",64.80%
same,Observed Efficacy,"[2]; Folpet 400 g a.i./ha, 24 days after application",49.80%
same,Disease control on severity on leaves,[1]; Folpet 500 g AI/ha,41.6%
